Results on 2 compounds are retold here after ChEMBL document CHEMBL1151468, “Selection of SHV extended-spectrum-beta-lactamase-dependent cefotaxime and ceftazidime resistance in Klebsiella pneumoniae requires a plasmid-borne blaSHV gene” (2008).

In assay [1] the test system is Klebsiella pneumoniae. Put plainly: Antibacterial activity against ESBL-negative Klebsiella pneumoniae isolate 107 by Etest. The assay is classed as functional.
Assay [2] relates to Klebsiella pneumoniae. The assay can be described thus: Antibacterial activity against ESBL-negative Klebsiella pneumoniae isolate 102 by Etest. The assay is classed as functional.
The test system of assay [3] is Klebsiella pneumoniae. Put plainly: Antibacterial activity against ESBL-negative Klebsiella pneumoniae isolate 116 by Etest. The format is functional.
Assay [4] relates to Klebsiella pneumoniae. The assay can be described thus: Antibacterial activity against ESBL-negative Klebsiella pneumoniae isolate 108 by Etest. The format is functional.
For assay [5], the system named is Klebsiella pneumoniae. Put plainly: Antibacterial activity against ESBL-negative Klebsiella pneumoniae isolate 115 by Etest. The assay is classed as functional.
Assay [6] has as its system Klebsiella pneumoniae. The assay can be described thus: Antibacterial activity against ESBL-positive Klebsiella pneumoniae isolate 121 having upstream IS26 insertion by Etest. The assay is classed as functional.
Assay [7] has as its system Klebsiella pneumoniae. Put plainly: Antibacterial activity against ESBL-negative Klebsiella pneumoniae isolate 106 by Etest. The assay is classed as functional.
Assay [8] deals with Klebsiella pneumoniae. Put plainly: Antibacterial activity against ESBL-negative Klebsiella pneumoniae isolate 105 by Etest. The assay is classed as functional.
Assay [9] relates to Klebsiella pneumoniae. Put plainly: Antibacterial activity against ESBL-positive Klebsiella pneumoniae isolate 120 having upstream IS26 insertion by Etest. The format is functional.
Assay [10] concerns Klebsiella pneumoniae. The assay can be described thus: Antibacterial activity against ESBL-negative Klebsiella pneumoniae isolate 85 by Etest. The format is functional.
The subject of assay [11] is Klebsiella pneumoniae. Put plainly: Antibacterial activity against ESBL-positive Klebsiella pneumoniae isolate J4 having blaSHV promoter sequence with IS26 insertion by Etest. The assay is classed as functional.
In assay [12] the test system is Klebsiella pneumoniae. Put plainly: Antibacterial activity against ESBL-positive Klebsiella pneumoniae isolate 110 having upstream IS26 insertion by Etest. The format is functional.
In assay [13] the test system is Klebsiella pneumoniae. The assay can be described thus: Antibacterial activity against ESBL-negative Klebsiella pneumoniae isolate 109 by Etest. The format is functional.
Assay [14] deals with Klebsiella pneumoniae. Put plainly: Antibacterial activity against ESBL-positive Klebsiella pneumoniae isolate J5 having blaSHV promoter sequence with IS26 insertion by Etest. The format is functional.
Assay [15] deals with Klebsiella pneumoniae. The assay can be described thus: Antibacterial activity against ESBL-negative Klebsiella pneumoniae isolate 114 by Etest. The assay is classed as functional.
Assay [16] concerns Klebsiella pneumoniae. Put plainly: Antibacterial activity against ESBL-positive Klebsiella pneumoniae isolate K2 having blaSHV promoter sequence with IS26 insertion by Etest. The assay is classed as functional.
Assay [17] has as its system Klebsiella pneumoniae. The assay can be described thus: Antibacterial activity against ESBL-negative Klebsiella pneumoniae isolate 30 by Etest. The format is functional.
Assay [18] has as its system Klebsiella pneumoniae. The assay can be described thus: Antibacterial activity against ESBL-negative Klebsiella pneumoniae isolate 113 by Etest. The format is functional.
The subject of assay [19] is Klebsiella pneumoniae. The assay can be described thus: Antibacterial activity against ESBL-negative Klebsiella pneumoniae isolate 104 by Etest. The assay is classed as functional.
Assay [20] concerns Klebsiella pneumoniae. Put plainly: Antibacterial activity against ESBL-positive Klebsiella pneumoniae isolate 119 having blaSHV promoter sequence with IS26 insertion by Etest. The format is functional.
Assay [21] relates to Klebsiella pneumoniae. The assay can be described thus: Antibacterial activity against ESBL-negative Klebsiella pneumoniae isolate M1 by Etest. The assay is classed as functional.
Assay [22] deals with Klebsiella pneumoniae. The assay can be described thus: Antibacterial activity against ESBL-negative Klebsiella pneumoniae isolate 102 at 1 ug/ml by Etest. The format is functional, organism-based.
Assay [23] concerns Klebsiella pneumoniae. The assay can be described thus: Antibacterial activity against ESBL-negative Klebsiella pneumoniae isolate 113 at 1 ug/ml by Etest. The format is functional, organism-based.
The test system of assay [24] is Klebsiella pneumoniae. The assay can be described thus: Antibacterial activity against ESBL-negative Klebsiella pneumoniae isolate 114 at 1 ug/ml by Etest. The format is functional, organism-based.
Assay [25] has as its system Klebsiella pneumoniae. The assay can be described thus: Antibacterial activity against ESBL-negative Klebsiella pneumoniae isolate 106 at 1 ug/ml by Etest. The format is functional, organism-based.

≈ marks a conversion by molar mass, not a printed value. Calls of active or inactive are those of the source.

A word on the MIC: it is the smallest concentration in the dilution series that meets the test's criterion for growth inhibition. High values mean a less susceptible organism, low ones a more susceptible organism. On to `CO/N=C(\C(=O)N[C@@H]1C(=O)N2C(C(=O)O)=C(COC(C)=O)CS[C@H]12)c1csc(N)n1` [CEFOTAXIME], for which the MIC was 0.5 µg/mL (≈ 1.1 µM) against Klebsiella pneumoniae [1]; 3 µg/mL (≈ 6.59 µM) against Klebsiella pneumoniae [2]; over 16 µg/mL in the assay with Klebsiella pneumoniae [3]; 6 µg/mL (≈ 13.2 µM) with Klebsiella pneumoniae [4]; 8 µg/mL (≈ 17.6 µM) in the assay on Klebsiella pneumoniae [5]; over 16 µg/mL in the assay with Klebsiella pneumoniae [6]. Also, the MIC in the assay with Klebsiella pneumoniae [7], in the assay with Klebsiella pneumoniae [8], against Klebsiella pneumoniae [9], with Klebsiella pneumoniae [10], with Klebsiella pneumoniae [11] and against Klebsiella pneumoniae [12] was over 16 µg/mL each time. The MIC in the assay with Klebsiella pneumoniae [13], in the assay on Klebsiella pneumoniae [14], with Klebsiella pneumoniae [15], in the assay on Klebsiella pneumoniae [16], in the assay on Klebsiella pneumoniae [17] and with Klebsiella pneumoniae [18] was over 16 µg/mL in each case. The MIC is 3 µg/mL (≈ 6.59 µM) in the assay with Klebsiella pneumoniae [19], over 16 µg/mL with Klebsiella pneumoniae [20] and 4 µg/mL (≈ 8.78 µM) against Klebsiella pneumoniae [21].
Take `CC(C)(O/N=C(\C(=O)N[C@@H]1C(=O)N2C(C(=O)[O-])=C(C[n+]3ccccc3)CS[C@H]12)c1csc(N)n1)C(=O)O`: the result with Klebsiella pneumoniae [22], with Klebsiella pneumoniae [23], in the assay with Klebsiella pneumoniae [24] and in the assay on Klebsiella pneumoniae [25] was Active.
